Assay results taken from US8206943B1, “Assay for PCSK9 inhibitors” (Schering Corporation, priority 2008, dated 2012).

Experiments:
PCSK9 [1] = target: T1, PCSK9 (Homo sapiens, UniProt Q8NBP7); experiment: HPLC / chromatographic analysis of PCSK9 autoproteolysis (cis-cleavage) in the presence of inhibitors; assay type: biochemical; set-up: Pro-Cat-Domain Polypeptide; initiator Met (N); made in house; host or cells: E. coli BL-21(DE3)
Protocol: Unprocessed PCSK9 (18 μM for NanoStream experiment, 8 μM for BioRad Experion experiment) was incubated at 25° C. in 25 mM Hepes pH 7.5, 150 mM NaCl, 10% glycerol and 1 mM EDTA (4% DMSO may be added to uninhibited control assays when run in conjunction with assays that include inhibitors dissolved in DMSO). At the designated time points (t=0 minutes, 60 minutes and 240 minutes), aliquots from the 18 μM incubation were quenched by adding guanidine hydrochloride to a concentration of 6M, then the quenched reaction was applied (1 μl) to NanoStream Brio #4207007 (300 Å, C4) chromatography cassette. Following gradient elution, from the cassette, using 0.1% TFA in water (solvent A) and 0.085% TFA in acetonitrile (solvent B), the peaks were quantitated by absorbance at 214 nm.
Furthermore, a chromatographic analysis of PCSK9 autoproteolysis was performed in the presence of various inhibitors. This assay was used to determine the effect of the inhibitors Tris (2-carboxyethyl) phosphine (TCEP; a reducing agent) and tosyl-L-lysine chloromethyl ketone (TLCK) on the PCSK9 autoproteolysis reaction. In these assay, the ProCat peak is uncleaved PCSK9 whereas the Pro- and Cat-peaks indicate generation of the Pro- and Cat-domains, which indicates autoproteolytic cleavage by PCSK9. FIG. 5(a) sets forth the data in the assay wherein the Tris (2-carboxyethyl) phosphine inhibitor was assayed. […] In the control-A experiment, Tris (2-carboxyethyl) phosphine was added at t=zero minutes of a 6 hour incubation. Tris (2-carboxyethyl) phosphine is a disulfide reducing agent that is not oxidized by air.
In the control-B experiment set forth in FIG. 5(a), Tris (2-carboxyethyl) phosphine was added at the end of a 6 hour incubation. The appearance of the Pro- and Cat-domains in the control B assay indicate the occurrence of autoproteolysis.
FIG. 5(b) sets forth data wherein inhibition mediated by TCEP (Tris (2-carboxyethyl) phosphine) and TLCK (tosyl-L-lysine chloromethyl ketone) are compared, side-by-side, in an autoproteolysis assay. […] The inhibitors are added at time zero. TCEP was added at 5 mM to quench the reaction; this sample serves as the 100% inhibited control—Control A in FIG. 5. TLCK was added at a concentration of 77 μM.
An HPLC analysis was performed on unprocessed PCSK9. A sample containing 12 uM unprocessed PCSK9 in 25 mM Hepes buffer pH 7.5, 150 mM NaCl, 1 mM EDTA, 10% glycerol and 4.0% DMSO was incubated at 25° C. […] One microliter of the reaction mixture was analyzed directly by reversed phase-HPLC using Express-LC100, a micro fluidic chromatographic system from Eksigent. […] The flow rate was 12 uI per minute and the sample components were detected at 214 nm. The amount of ProCat polypeptide was calculated as % of sum of peak areas corresponding to Pro-, Cat- and ProCat domains. […]
Target sequence in this assay (Q8NBP7 with tags, fused parts or gaps): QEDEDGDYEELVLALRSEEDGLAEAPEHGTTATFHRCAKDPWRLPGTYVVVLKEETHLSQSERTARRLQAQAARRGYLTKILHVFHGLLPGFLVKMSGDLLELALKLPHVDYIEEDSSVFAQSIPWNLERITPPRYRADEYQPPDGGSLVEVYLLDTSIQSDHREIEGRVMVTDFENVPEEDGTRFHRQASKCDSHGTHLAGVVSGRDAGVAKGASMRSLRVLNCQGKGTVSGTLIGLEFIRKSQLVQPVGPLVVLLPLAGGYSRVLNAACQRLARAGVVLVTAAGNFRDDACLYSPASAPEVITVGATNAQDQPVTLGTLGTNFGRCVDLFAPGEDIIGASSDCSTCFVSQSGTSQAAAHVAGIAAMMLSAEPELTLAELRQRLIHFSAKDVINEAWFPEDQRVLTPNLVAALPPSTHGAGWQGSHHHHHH

PCSK9 [2] = target: T1, PCSK9; experiment: Cis-cleavage assay for PCSK9 using immuno-detection (ELISA of remaining FLAG-tag on HisSorb plate); assay type: biochemical; set-up: A DNA fragment corresponding to residues 31-454 of human PCSK9 (Pro-Cat domains) was made synthetically; made in house; host or cells: E. coli (pDest14 vector; expressed as for the first construct, BL-21(DE3)); details: 100 uM, 30° C. for 4 hours
Protocol: This example describes an assay to monitor the cis-cleavage of human PCSK9 using immuno-detection methods. A construct of human PCSK9 was created to have an N-terminal FLAG-tag and a (His)6-tag on the C-terminus. After incubation, the reaction was quenched and the domains were disassociated with 4.0 M urea. The protein was transferred to and bound, via the His-tag, to a HisSorb plate (Qiagen; Valencia, Calif.; nickel-nitrilotriacetic acid (Ni-NTA) coated plate). The amount of cleavage was determined by measuring the remaining FLAG-tag using standard ELISA techniques. Using this method, the sensitivity of the assay was increased at least 1000-fold over gel-based techniques and the micro-titer format makes the assay compatible with high throughput screening methods.
Cloning and expression. A DNA fragment corresponding to residues 31-454 of human PCSK9 (Pro-Cat domains) was made synthetically (GeneScript Corp., Piscataway, N.J.). Additional bases were included to add a Not1 restriction site and a Shine-Dalgarno initiation sequence to the 5′-end. A GS-(His)6 tag followed by a Asc1 restriction site was added to the 3′-end. A Gateway vector of PCSK9 was produced as FLAG-Pro-Cat(454)-GS-(His)6 by restriction digestion/ligation into the pDest14 expression vector. Expression and purification of the protein was done as previously described with aliquots frozen at −80° C. […]
Target sequence in this assay (Q8NBP7 31-454): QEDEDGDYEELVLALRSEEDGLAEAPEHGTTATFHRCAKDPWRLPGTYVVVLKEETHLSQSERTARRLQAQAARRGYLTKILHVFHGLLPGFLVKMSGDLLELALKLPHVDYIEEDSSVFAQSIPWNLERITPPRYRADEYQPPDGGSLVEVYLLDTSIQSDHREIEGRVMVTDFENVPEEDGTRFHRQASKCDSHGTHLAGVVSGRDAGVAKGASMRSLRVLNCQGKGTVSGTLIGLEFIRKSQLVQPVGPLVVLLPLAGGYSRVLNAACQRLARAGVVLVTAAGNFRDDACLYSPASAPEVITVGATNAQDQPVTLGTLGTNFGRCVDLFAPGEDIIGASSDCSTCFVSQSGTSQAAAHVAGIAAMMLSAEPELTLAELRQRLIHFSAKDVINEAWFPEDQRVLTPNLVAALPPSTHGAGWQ

[3] = 77 μM, added at time zero, FIG. 5(b)

Row | Compound | inhibition of cis-cleavage activity (PCSK9 [1]; 5 mM, added at t=zero minutes of a 6 hour incubation (control-A), FIG. 5(a)) | inhibition of cis-cleavage (negative control) (PCSK9 [2]) | inhibition of cis-cleavage reaction (PCSK9 [1]; 77 uM, 6 hour incubation at 25° C., 12 uM unprocessed PCSK9) | Pro- and Cat-domains in comparison to Control-A (TCEP) (PCSK9 [1]; [3]) | ProCat peak (uncleaved PCSK9) in comparison to Control-A (TCEP) (PCSK9 [1]; [3])
1 | O=C(O)CCP(CCC(=O)O)CCC(=O)O [TCEP, Tris (2-carboxyethyl) phosphine] | complete inhibition | – | – | – | –
2 | tosyl-L-lysine chloromethyl ketone [TLCK] | – | 100% | significant inhibition | slight increase | small decrease
